According to US4540689A, “Penicillin derivative” (Kureha Kagaku Kogyo Kabushiki Kaisha, priority 1981, dated 1985):
In brackets after ≈: the same amount, converted by molar mass.

How the values were obtained:
Escherichia coli = assay: Effect on intestinal bacterial colonies, E. coli count in feces; assay type: in vivo; details: female ICR mice, oral 500 mg/kg/day for two days, first day after administration; before administration 6.4
Experimental: (§1) Effect of the present compounds on the intestinal bacterial colonies was examined.
(§2) Each of the present compounds was orally administered to mice (one group consisting of five female ICR mice of 6-week-old) for two consecutive days at a dose of 500 mg/kg/day.
(§3) Before and on the first day after the administration, feces of each mouse was collected and diluted with an anerobic diluent (phosphoric buffer solution) of 100 times volume and ground. 0.1 ml of the diluted and ground feces was smeared on each culture medium shown in Table 1 and cultured aerobically or anaerobically (according to the anaerobic glove box method) under each condition shown in Table 1.
DHL agar aerobic, 37° C., one day

Pseudomonas aeruginosa = assay: Effect on intestinal bacterial colonies, Ps. aeruginosa count in feces; assay type: in vivo; details: female ICR mice, oral 500 mg/kg/day for two days, first day after administration; before administration <3.0
Experimental: as §1, §2, §3
NAC agar aerobic, 37° C., one day

Streptococcus spp. = assay: Effect on intestinal bacterial colonies, Streptococcus count in feces; assay type: in vivo; details: female ICR mice, oral 500 mg/kg/day for two days, first day after administration; before administration 6.8
Experimental: as §1, §2, §3
TATAC agar aerobic, 37° C., one day

[1] = tested on: Lactobacillus acidophilus; assay: Effect on intestinal bacterial colonies, L. acidophilus count in feces; assay type: in vivo; details: female ICR mice, oral 500 mg/kg/day for two days, first day after administration; before administration 9.0
Experimental: as §1, §2, §3
Lactobacillus acidophilus
LBS agar anaerobic, 37° C., five

Lactobacillus bifidus = assay: Effect on intestinal bacterial colonies, L. bifidus count in feces; assay type: in vivo; details: female ICR mice, oral 500 mg/kg/day for two days, first day after administration; before administration 8.4
Experimental: as §1, §2, §3
BS agar anaerobic, 37° C., five

Bacteroides = assay: Effect on intestinal bacterial colonies, Bacteroides count in feces; assay type: in vivo; details: female ICR mice, oral 500 mg/kg/day for two days, first day after administration; before administration 8.3
Experimental: as §1, §2, §3
Bacteroides NBGT agar anaerobic, 37° C., five

[2] = tested on: Escherichia coli IFO 12734; assay: Antibacterial activity (MIC), agar plate, E. coli; assay type: cell-based; details: E. coli IFO 12734, Mueller-Hinton agar, 37° C., 18 to 24 hours; unit assumed
Experimental: (§4) Antibacterial activity of the present compounds was examined as follows.
(§5) Antibacterial activity of each of the present compounds was examined against the following two bacteria according to the standard method of Japan Society of Chemotherapy:
Escherichia coli IFO 12734 and
(§6) Each bacterial strain was inoculated into the Mueller-Hinton's culture medium and cultured at 37° C. for 18 to 48 hours. The culture medium was diluted so as to contain 1×10^6 cells of the bacteria per one ml, and the obtained medium was used as the bacterial specimen.
(§7) Agar plates were prepared by adding one part by weight of each solution of the present compounds having a predetermined concentration to nine parts by weight of Mueller-Hinton's culture medium.
(§8) A loopful amount of the bacterial specimen prepared above was smeared to make a streak of about 2 cm on each agar plate and cultured at 37° C. for 18 to 24 hours. The minimum concentration for completely inhibiting proliferation of the bacteria (referred as MIC) was determined.

[3] = tested on: Staphylococcus aureus IAM 1011; assay: Antibacterial activity (MIC), agar plate, Staph. aureus; assay type: cell-based; details: Staph. aureus IAM 1011, Mueller-Hinton agar, 37° C., 18 to 24 hours; unit assumed
Experimental: as §4, §5
Staphylococcus aureus IAM 1011
as §6, §7, §8

[4] = tested on: Staphylococcus aureus IAM 1011; assay: Activation by rat liver homogenate (S-9 mix), penicillin cup proliferation-inhibiting circle; assay type: cell-based; details: compound solution 100 μg/ml, ratio of circle diameter to conventional penicillin antibiotic; for Proliferation-inhibiting index (%), after adding S-9 mix: incubated with S-9 mix 37° C., 20 min; for Proliferation-inhibiting index (%), before adding S-9 mix: phosphoric buffer control without S-9
Experimental: As an enzyme for activating metabolism, a rat liver homogenate (S-9, manufactured by Oriental Yeast Company, Japan) was used in the following composition per one ml (hereinafter referred to as S-9 mix).
0.1 ml of each solution of the present compounds at a concentration of 100 μg/ml was mixed with 0.9 ml of S-9 mix or 0.9 ml of 0.1M phosphoric buffer solution (as a control) and the obtained mixture was incubated at 37° C. for 20 min with shaking.
Staphylococcus aureus IAM 1011 was inoculated into a Mueller-Hinton's culture medium and cultured at 37° C. for 18 hours. The culture medium was adjusted to a cell concentration of 1×10^8 per one ml and mixed with 50 times by volume of Mueller-Hinton's agar culture medium to obtain an agar plate.
A penicillin cup of 8 mm in diameter was placed on the agar plate prepared above, and into the cup 0.1 ml of the mixture was introduced and allowed to stand at 4° C. for 2 hours and then cultured at 37° C. for 18 hours to measure the diameter of a circle in which the proliferation of bacteria was inhibited (proliferation-inhibiting circle). In Table 4, the proliferation-inhibitingindex is shown with the ratio (%) of the diameter of the proliferation-inhibiting circle obtained by using each of the present compounds to that obtained by using the comparative compound (conventionalpenicillin antibiotic).

Row | Compound | MIC, E. coli [2] | MIC, Staph. aureus [3] | Logarithmic value of the number of bacterial cells per one gram of feces, E. coli (Escherichia coli) | Logarithmic value of the number of bacterial cells per one gram of feces, Ps. aeruginosa (Pseudomonas aeruginosa) | Logarithmic value of the number of bacterial cells per one gram of feces, Strept. spp. (Streptococcus spp.) | Logarithmic value of the number of bacterial cells per one gram of feces, L. acidophilus [1] | Logarithmic value of the number of bacterial cells per one gram of feces, L. bifidus (Lactobacillus bifidus) | Logarithmic value of the number of bacterial cells per one gram of feces, Bacteroides (Bacteroides) | Proliferation-inhibiting index (%), after adding S-9 mix [4] | Proliferation-inhibiting index (%), before adding S-9 mix [4]
1 | CC(=O)Nc1ccc(C(=O)NCC(=O)N[C@@H](C(=O)N[C@@H]2C(=O)N3[C@@H]2SC(C)(C)[C@@H]3C(=O)O)c2ccccc2)cc1 [Example 8, 7-[N-(p-acetylaminohippuric acid amido)-O-phenylglycineamido]penicillanic acid] | ≥ 100 µg/mL | ≥ 12.5 µg/mL | 6.4 logarithmic value; cells per o | < 3.0 logarithmic value; cells per o | 6.7 logarithmic value; cells per o | 9.2 logarithmic value; cells per o | 8.5 logarithmic value; cells per o | 8.1 logarithmic value; cells per o | – | –
2 | Cc1ncc(CO)c(C=NC(C(=O)N[C@@H]2C(=O)N3[C@@H]2SC(C)(C)[C@@H]3C(=O)O)c2ccccc2)c1O (stereo partly drawn) [Example 6] | ≥ 100 µg/mL | ≥ 12.5 µg/mL | – | – | – | – | – | – | +++ (66-100) | ++ (33-66)
3 | CCOCOC(=O)[C@@H]1N2C(=O)[C@@H](NC(=O)COc3ccccc3)[C@H]2SC1(C)C [Example 10] | ≥ 25 µg/mL | 12.5 µg/mL (≈ 30.6 µM) | 6.4 logarithmic value; cells per o | < 3.0 logarithmic value; cells per o | 6.6 logarithmic value; cells per o | 9.0 logarithmic value; cells per o | 8.4 logarithmic value; cells per o | 8.2 logarithmic value; cells per o | – | –
4 | CC1(C)S[C@@H]2[C@H](NC(=O)C(N=Cc3cc([N+](=O)[O-])ccc3O)c3ccccc3)C(=O)N2[C@H]1C(=O)O (stereo partly drawn) [Example 3] | 12.5 µg/mL (≈ 25.1 µM) | 0.78 µg/mL (≈ 1.56 µM) | 6.5 logarithmic value; cells per o | < 3.0 logarithmic value; cells per o | 6.8 logarithmic value; cells per o | 9.1 logarithmic value; cells per o | 8.4 logarithmic value; cells per o | 8.2 logarithmic value; cells per o | +++ (66-100) | ++ (33-66)
5 | COCOC(=O)[C@@H]1N2C(=O)[C@@H](NC(=O)COc3ccccc3)[C@H]2SC1(C)C [Example 9] | ≥ 25 µg/mL | 12.5 µg/mL (≈ 31.7 µM) | 6.5 logarithmic value; cells per o | 3.2 logarithmic value; cells per o | 7.0 logarithmic value; cells per o | 9.5 logarithmic value; cells per o | 8.5 logarithmic value; cells per o | 8.1 logarithmic value; cells per o | ++ (33-66) | + (1-33)
6 | CC(=O)Nc1ccc(C(=O)N[C@@H](C(=O)N[C@@H]2C(=O)N3[C@@H]2SC(C)(C)[C@@H]3C(=O)O)c2ccccc2)cc1 [Example 7, 7-[N-(p-acetylaminobenzoicamido)-D-phenylglycineamido]penicillanic acid] | ≥ 100 µg/mL | ≥ 12.5 µg/mL | 6.5 logarithmic value; cells per o | < 3.0 logarithmic value; cells per o | 6.4 logarithmic value; cells per o | 9.0 logarithmic value; cells per o | 8.2 logarithmic value; cells per o | 8.0 logarithmic value; cells per o | – | –

Further lines, with some results ahead:

Row | MIC, E. coli [2] | MIC, Staph. aureus [3] | Compound | Logarithmic value of the number of bacterial cells per one gram of feces, E. coli (Escherichia coli) | Logarithmic value of the number of bacterial cells per one gram of feces, Ps. aeruginosa (Pseudomonas aeruginosa) | Logarithmic value of the number of bacterial cells per one gram of feces, Strept. spp. (Streptococcus spp.) | Logarithmic value of the number of bacterial cells per one gram of feces, L. acidophilus [1] | Logarithmic value of the number of bacterial cells per one gram of feces, L. bifidus (Lactobacillus bifidus) | Logarithmic value of the number of bacterial cells per one gram of feces, Bacteroides (Bacteroides) | Proliferation-inhibiting index (%), after adding S-9 mix [4] | Proliferation-inhibiting index (%), before adding S-9 mix [4]
7 | ≥ 200 µg/mL | 0.39 µg/mL (≈ 0.573 µM) | CC(=O)OC[C@H]1OC(OC(=O)[C@@H]2N3C(=O)[C@@H](NC(=O)COc4ccccc4)[C@H]3SC2(C)C)[C@H](OC(C)=O)[C@@H](OC(C)=O)[C@@H]1OC(C)=O (stereo partly drawn) [Example 1] | 7.2 logarithmic value; cells per o | < 3.0 logarithmic value; cells per o | 6.8 logarithmic value; cells per o | 9.1 logarithmic value; cells per o | 8.6 logarithmic value; cells per o | 8.5 logarithmic value; cells per o | ± (0-1) | - (0)
8 | 6.25 µg/mL | 0.1 µg/mL | COc1cccc(C=NC(C(=O)N[C@@H]2C(=O)N3[C@@H]2SC(C)(C)[C@@H]3C(=O)O)c2ccccc2)c1O (stereo partly drawn) [Example 2, sodium 6-(3-methoxysalicylaldehydeiminophenyl-glycino)penicillanate] | 6.4 logarithmic value; cells per o | < 3.0 logarithmic value; cells per o | 6.5 logarithmic value; cells per o | 8.8 logarithmic value; cells per o | 8.3 logarithmic value; cells per o | 8.3 logarithmic value; cells per o | +++ (66-100) | ++ (33-66)
9 | 12.5 µg/mL | 0.78 µg/mL | CC1(C)S[C@@H]2[C@H](NC(=O)C(N=Cc3ccccc3O)c3ccccc3)C(=O)N2[C@H]1C(=O)O (stereo partly drawn) [Example 4, sodium 6-(salicylaldehydeiminophenylglycino)penicillanate] | 6.4 logarithmic value; cells per o | < 3.0 logarithmic value; cells per o | 6.5 logarithmic value; cells per o | 8.8 logarithmic value; cells per o | 8.8 logarithmic value; cells per o | 8.2 logarithmic value; cells per o | +++ (66-100) | ++ (33-66)
